Assay results taken from patent US20240383913A1, “THIOPHENE RING COMPOUND, PREPARATION METHOD THEREFOR AND APPLICATION THEREOF” (CENTER FOR EXCELLENCE IN MOLECULAR CELL SCIENCE, CHINESE …, priority 2021, published 2024).

Key:
[1] = target: T1, 5-HT1A receptor (Homo sapiens (Human), UniProt P08908); assay: 5-HT1A receptor Gαi1 BRET (G protein trimer dissociation); assay type: cell-based; settings: 5-HT1A receptor, G protein pathway; for EC50: read-out: Gαi1 BRET EC50;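 on all read-outs here: cells transiently co-expressing 5-HT1A receptor, luciferase-tagged Gαi1, Gβ3 and GFP-tagged Gγ9, seeded in 96-well plates for BRET measurement of G protein signaling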
Description: (§1) The affinity of the compounds of the present disclosure for the 5-HTIA receptors was determined by the method of radioligand competition experiment. In the first step, a cell membrane component containing specific 5-HTIA receptor was prepared. A 10 cm culture dish was used for transfection with 10 ng of the 5-HTIA receptor and 40 μL of PEI. After 48 hours, the 10 cm culture dish was taken out from the cell incubator and the cultured cells had expressed the 5-HTIA receptor. A vacuum pump was used to suck off the culture medium, 3 mL of lysis buffer was added to each culture dish, and the cells were placed in a 4° C. cold room for 10 minutes. After the cells were detached, the cells were transferred to a 15 mL centrifuge tube and centrifuged at 1500 rpm for 5 minutes at 4° C., and the supernatant was discarded. The cell pellet was transferred to a tissue homogenizer, and 3 mL of lysis buffer was added and fully ground until the cells were broken. Then, cell suspension was equally aliquoted into several EP tubes, centrifuged at 12000 rpm for 5 minutes at 4° C., and the supernatant was discarded. The precipitate was the cell membrane component containing the 5-HT1A receptor. […] First, a standard binding buffer was added to the cell membrane component containing the 5-HT1A receptor, and the cell membrane was disrupted and resuspended with an electric tissue homogenizer. 30 μL of membrane protein suspension was added to each well of a 96-well plate. Then, 30 μL of different drugs were added to the 96-well plate sequentially from bottom to top to ensure that the final drug concentrations were 10^−5 M, 10^−6 M, 10^−7 M, 10^−8 M, 10^−9 M, and 0 M, with two replicates per treatment. Next, 30 μL of [3H]-LSD was added to each well of the 96-well plate. The plate was incubated for 2 hours at room temperature in the dark. Detection was conducted. The machine readout value reflected the amount of [3H]-LSD bound on the membrane, and after further data processing, the affinity Ki values of different compounds for the 5-HTIA receptor were obtained. To examine the downstream G protein signaling pathway mediated by 5-HTIA receptors, on the first day, a 6 cm culture dish was used for transfection with 1 μg of 5-HTIA receptors, 1 μg of Gαi1 containing C-terminal seaweed luciferase (Gαi1-Rluc), 1 μg of Gβ3, 1 μg of Gγ9 containing C-terminal green fluorescent protein (Gγ9-GFP), and 16 μL of PEI. The next day, the confluent cells of a 6 cm culture dish were digested and reseeded into a 96-well plate with 100 μL of culture medium was added to each well. On the third day, the drugs were added for test. The 96-well plate was taken out from the cell incubator to decant the culture medium, 40 μL of the substrate coelenterazine 400a (final concentration of 5 μM) was added to each well, and then 20 μL of different drugs were added sequentially from left to right to ensure that the final concentration of the drug decreased gradually from bottom to top, with two replicates per treatment. Finally, the prepared samples were loaded on machine for test. The machine readout value reflected the dissociation of G protein trimer, and thereby indicated the degree of activation of the G protein signaling pathway downstream of the 5-HTIA receptors.

[2] = target: T2, dopamine D2 receptors (Homo sapiens (Human), UniProt P14416); assay: Dopamine D2 receptor Gαi1 BRET (G protein trimer dissociation); assay type: cell-based; settings: for EC50: read-out: Gαi1 BRET EC50; for Emax: read-out: Gαi1 BRET (Emax %);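 on all read-outs here: transfected cells co-expressing D2 receptor, Gαi1-Rluc, Gβ3 and Gγ9-GFP, BRET with coelenterazine 400a at 5 µM read as G protein trimer dissociation, graded drug concentrations in duplicate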
Description: (§2) To examine the downstream G protein signaling pathway mediated by dopamine D2 receptors, on the first day, a 6 cm culture dish was used for transfection with 1 μg of dopamine D2 receptors, 1 μg of Gαi1 containing a C-terminal seaweed luciferase (Gαi1-Rluc), 1 μg of Gβ3, 1 μg of Gγ9 containing C-terminal green fluorescent protein (Gγ9-GFP), and 16 μL of PEI. At the same time, in order to examine the downstream β-arrestin2 signaling pathway mediated by dopamine D2 receptors, on the first day, a 6 cm culture dish was used for transfection with 500 μg of dopamine D2 receptors containing C-terminal seaweed luciferase (D2-Rluc), 500 μg of G protein-coupled receptor kinase 2 (GRK2), 2500 μg of β-arrestin2 containing N-terminal green fluorescent protein (GFP2-ARRB2) mixed with 14 μL of PEI. The next day, the confluent cells of a 6 cm culture dish were digested and reseeded into a 96-well plate with 100 μL of culture medium added to each well. On the third day, the drugs were added for test. The 96-well plate was taken out from the cell incubator to decant the culture medium, 40 μL of the substrate coelenterazine 400a (final concentration of 5 μM) was added to each well, and then 20 μL of different drugs were added sequentially from left to right to ensure that the final concentration of the drug decreased gradually from bottom to top, with two replicates per treatment. Finally, the prepared samples were loaded on machine for test. The machine readout value reflected the recruitment of β-arrestin2 to the membrane or the dissociation of G protein trimer. The former indicated the degree of activation of the β-arrestin2 signaling pathway downstream of the dopamine D2 receptors, and the latter indicated the degree of activation of the G protein signaling pathway downstream of the dopamine D2 receptors.

[3] = target: T2, dopamine D2 receptors; assay: Dopamine D2 receptor β-arrestin2 BRET (recruitment); assay type: cell-based; settings: for EC50: read-out: β-arrestin2 BRET EC50; for Emax: read-out: β-arrestin2 BRET (Emax %);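 on all read-outs here: cells co-expressing Rluc-fused D2 receptor, GRK2 and GFP2-fused β-arrestin2, BRET read with coelenterazine 400a after adding drug over a concentration series, in duplicate wells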
Description: as §2

[4] = target: T2, dopamine D2 receptors; assay: Affinity for dopamine D2 receptors, radioligand competition with [3H]-Methylspiperone; assay type: binding; settings: 293T membrane transiently expressing D2
Description: The affinity of the compounds of the present disclosure for the dopamine D2 receptors was determined by the method of radioligand competition experiment. In the first step, a cell membrane component containing specific dopamine D2 receptors was prepared. A 10 cm culture dish was used for transfection with 10 ng of the dopamine D2 receptors and 40 μL of polyethylenimine (PEI hereafter). After 48 hours, the 10 cm culture dish was taken out from the cell culture incubator and the cultured cells had expressed the dopamine D2 receptors. A vacuum pump was used to suck off the culture medium, 3 mL of lysis buffer was added to each culture dish, and the cells were placed in a 4° C. cold room for 10 minutes. After the cells were detached, the cells were transferred to a 15 mL centrifuge tube and centrifuged at 1500 rpm for 5 minutes at 4° C., and the supernatant was discarded. The cell pellet was transferred to a tissue homogenizer, and 3 mL of lysis buffer was added and fully ground until the cells were broken. Then, cell suspension was equally aliquoted into several EP tubes, centrifuged at 12000 rpm for 5 minutes at 4° C., and the supernatant was discarded. The precipitate was the cell membrane component containing the dopamine D2 receptors. […] First, a standard binding buffer was added to the cell membrane component containing the dopamine D2 receptors, and the cell membrane was disrupted and resuspended with an electric tissue homogenizer. 30 μL of membrane protein suspension was added to each well of a 96-well plate. Then, 30 μL of different drugs were added to the 96-well plate sequentially from bottom to top to ensure that the final drug concentrations were 10^−5 M, 10^−6 M, 10^−7 M, 10^−8 M, 10^−9 M, and 0 M, with two replicates per treatment. Next, 30 μL of [3H]-Methylspiperone was added to each well of the 96-well plate. The plate was incubated for 2 hours at room temperature in the dark. Detection was conducted. The machine readout value reflected the amount of [3H]-Methylspiperone bound on the membrane, and after further data processing, the affinity Ki values of different compounds for the dopamine D2 receptors were obtained.

[5] = target: T1, 5-HT1A receptor; assay: Affinity for 5-HT1A receptors, radioligand competition with [3H]-LSD; assay type: binding; settings: 293T membrane transiently expressing 5-HT1A; [3H]-LSD; read-out: 5-HT1A affinity Ki;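 further: membranes from cells transiently transfected with 5-HT1A receptor, bound [3H]-LSD displaced by compound at 10^-9 to 10^-5 M, 2 h incubation at room temperature in the dark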
Description: as §1

[6] = target: T3, 5-HT2A receptor (Homo sapiens (Human), UniProt P28223); assay: Affinity for 5-HT2A receptors, radioligand competition with [3H]-ketanserin; assay type: binding; settings: 293T membrane transiently expressing 5-HT2A
Description: The affinity of the compounds of the present disclosure for the 5-HT2A receptors was determined by the method of radioligand competition experiment. In the first step, a cell membrane component containing specific 5-HT2A receptor was prepared. A 10 cm dish was used for transfection with 10 ng of the 5-HT2A receptor and 40 μL of PEI. After 48 hours, the 10 cm dish was taken out from the cell incubator and the cultured cells had expressed the 5-HT2A receptor. A vacuum pump was used to suck off the culture medium, 3 mL of lysis buffer was added to each culture dish, and the cells were placed in a 4° C. cold room for 10 minutes. After the cells were detached, the cells were transferred to a 15 mL centrifuge tube and centrifuged at 1500 rpm for 5 minutes at 4° C., and the supernatant was discarded. The cell pellet was transferred to a tissue homogenizer, and 3 mL of lysis buffer was added and fully ground until the cells were broken. Then, cell suspension was equally aliquoted into several EP tubes, centrifuged at 12000 rpm for 5 minutes at 4° C., and the supernatant was discarded. The precipitate was the cell membrane component containing the 5-HT2A receptor. […] First, a standard binding buffer was added to the cell membrane component containing the 5-HT2A receptor, and the cell membrane was disrupted and resuspended with an electric tissue homogenizer. 30 μL of membrane protein suspension was added to each well of a 96-well plate. Then, 30 μL of different drugs were added to the 96-well plate sequentially from bottom to top to ensure that the final drug concentrations were 10^−5 M, 10^−6 M, 10^−7 M, 10^−8 M, 10^−9 M, and 0 M, with two replicates per treatment. Next, 30 μL of [3H]-ketanserin was added to each well of the 96-well plate. The plate was incubated for 2 hours at room temperature in the dark. Detection was conducted. The machine readout value reflected the amount of [3H]-ketanserin bound on the membrane, and after further data processing, the affinity Ki values of different compounds for the 5-HT2A receptor were obtained.

[7] = target: T3, 5-HT2A receptor; assay: 5-HT2A receptor Gαq BRET (G protein trimer dissociation); assay type: cell-based; settings: for EC50: 5-HT2A receptor, G protein pathway, read-out: Gαq BRET EC50; for Emax: read-out: Gαq BRET (Emax %);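 on all read-outs here: cells transfected with 5-HT2A receptor, Gαq-Rluc, Gβ3 and Gγ9-GFP, BRET read with coelenterazine 400a (5 µM) across a compound dilution series in duplicate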
Description: (§3) To examine the downstream G protein signaling pathway mediated by 5-HT2A receptors, on the first day, a 6 cm culture dish was used for transfection with 1 μg of 5-HT2A receptors, 1 μg of Gαq containing C-terminal seaweed luciferase (Gαq-Rluc), 1 μg of Gβ3, 1 μg of Gγ9 containing C-terminal green fluorescent protein (Gγ9-GFP), and 16 μL of PEI. At the same time, in order to examine the downstream β-arrestin2 signaling pathway mediated by 5-HT2A receptors, on the first day, a 6 cm culture dish was used for transfection with 500 μg of 5-HT2A receptors containing C-terminal seaweed luciferase (5-HT2A-Rluc), 500 μg of G protein-coupled receptor kinase 2 (GRK2), 2500 μg of β-arrestin2 containing N-terminal green fluorescent protein (GFP2-ARRB2), and 14 μL of PEI. The next day, the confluent cells of a 6 cm culture dish were digested and reseeded into a 96-well plate with 100 μL of culture medium was added to each well. On the third day, the drugs were added for test. The 96-well plate was taken out from the cell incubator to decant the culture medium, 40 μL of the substrate coelenterazine 400a (final concentration of 5 μM) was added to each well, and then 20 μL of different drugs were added sequentially from left to right to ensure that the final concentration of the drug decreased gradually from bottom to top, with two replicates per treatment. Finally, the prepared samples were loaded on machine for test. The machine readout value reflected the recruitment of β-arrestin2 to the membrane or the dissociation of G protein trimer. The former indicated the degree of activation of the β-arrestin2 signaling pathway downstream of the 5-HT2A receptors, and the latter indicated the degree of activation of the G protein signaling pathway downstream of the 5-HT2A receptors.

[8] = target: T3, 5-HT2A receptor; assay: 5-HT2A receptor β-arrestin2 BRET (recruitment); assay type: cell-based; settings: 5-HT2A receptor, β-arrestin2 pathway;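 further: cells co-expressing Rluc-tagged 5-HT2A receptor, GRK2 and GFP2-tagged β-arrestin2, read by BRET with coelenterazine 400a (5 µM) across graded drug concentrations in duplicate, signal reflecting β-arrestin2 membrane recruitment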
Description: as §3

[9] = D2 receptor, β-arrestin2 pathway

T1 sequence (P08908 whole entry): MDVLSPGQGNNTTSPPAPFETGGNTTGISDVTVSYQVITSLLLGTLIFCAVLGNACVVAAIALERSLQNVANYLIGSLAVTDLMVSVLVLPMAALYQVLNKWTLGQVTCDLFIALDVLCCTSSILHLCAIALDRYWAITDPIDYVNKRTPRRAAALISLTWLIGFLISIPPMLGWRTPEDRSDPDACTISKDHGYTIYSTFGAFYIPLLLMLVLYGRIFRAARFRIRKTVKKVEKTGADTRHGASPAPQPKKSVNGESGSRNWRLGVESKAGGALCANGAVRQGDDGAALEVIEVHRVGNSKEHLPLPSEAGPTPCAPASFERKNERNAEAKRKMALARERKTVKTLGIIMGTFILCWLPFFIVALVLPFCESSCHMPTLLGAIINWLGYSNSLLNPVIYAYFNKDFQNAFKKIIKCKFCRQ
T3 sequence (P28223 whole entry): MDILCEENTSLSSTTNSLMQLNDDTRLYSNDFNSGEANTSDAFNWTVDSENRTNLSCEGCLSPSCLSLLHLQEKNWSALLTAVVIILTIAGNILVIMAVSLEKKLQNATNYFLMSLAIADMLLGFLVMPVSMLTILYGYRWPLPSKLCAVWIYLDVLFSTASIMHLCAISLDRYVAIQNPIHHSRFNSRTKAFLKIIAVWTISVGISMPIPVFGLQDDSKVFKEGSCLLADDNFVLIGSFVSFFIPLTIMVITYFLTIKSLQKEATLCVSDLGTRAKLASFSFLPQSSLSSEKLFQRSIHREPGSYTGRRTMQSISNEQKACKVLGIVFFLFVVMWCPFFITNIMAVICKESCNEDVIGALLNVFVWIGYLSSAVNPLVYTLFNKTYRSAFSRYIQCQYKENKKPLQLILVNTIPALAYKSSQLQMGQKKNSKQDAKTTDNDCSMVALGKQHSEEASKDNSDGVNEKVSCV
T2 sequence (P14416 whole entry, the tested form may be a part): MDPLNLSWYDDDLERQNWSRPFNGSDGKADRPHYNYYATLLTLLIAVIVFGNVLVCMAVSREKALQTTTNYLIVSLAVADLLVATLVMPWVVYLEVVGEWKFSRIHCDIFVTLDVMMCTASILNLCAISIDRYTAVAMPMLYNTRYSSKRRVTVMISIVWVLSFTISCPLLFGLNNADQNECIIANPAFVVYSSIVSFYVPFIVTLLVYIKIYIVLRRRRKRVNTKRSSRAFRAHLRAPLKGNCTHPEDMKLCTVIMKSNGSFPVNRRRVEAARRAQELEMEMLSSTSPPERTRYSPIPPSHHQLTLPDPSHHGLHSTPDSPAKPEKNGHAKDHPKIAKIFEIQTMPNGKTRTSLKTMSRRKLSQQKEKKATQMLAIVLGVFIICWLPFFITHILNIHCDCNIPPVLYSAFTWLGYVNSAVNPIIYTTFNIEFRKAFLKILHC

Compound	Emax [1] [%]	EC50 [1] [nM]	EC50 ([2]; D2 receptor, G protein pathway) [nM]	Emax [2] [%]	EC50 [3, 9] [nM]	Emax [3] [%]	Ki [4] [nM]	Ki [5] [nM]	Ki [6] [nM]	EC50 [7] [nM]	Emax [7] [%]	Emax [8] [%]	Emax ([2]; D2 receptor, G protein pathway) [%]	Emax [3, 9] [%]	Gαi1 BRET (Emax %) [1]	Gαi1 BRET (Emax %) ([2]; D2 receptor, G protein pathway)	β-arrestin2 BRET (Emax %) [3, 9]	EC50 ([8]; read-out: β-arrestin2 BRET EC50) [nM]
O=c1ccc2ccc(OCCCCN3CCN4c5cccc6scc(c56)CC4C3)cc2[nH]1 (centres unmarked) [Compound I-19, 7-(4-(6a,7,9,10-Tetrahydropyrazino[1,2-a]Thieno [4,3,2-De]Quinolin-8 (6H)-Yl) Butoxy) Quinolin-2 (1H)-One]	81	3670	8.26	74.6	43.9	64.5	10	30	1410	1440	15.6							
O=C(CN1CCN2c3cccc4scc(c34)CC2C1)c1ccc(F)cc1 (centres unmarked) [Compound I-10, 1-(4-Fluorophenyl)-2-(6a,7,9,10-Tetrahydropyrazino[1,2-a]Thieno [4,3,2-De]Quinolin-8 (6H)-Yl) Ethan-1-One]	71	7200	796	17.1	14.3	21.5	2060	970			110	71.6						
c1cc2c3c(csc3c1)CC1CN(CC3CC3)CCN21 (centres unmarked) [Compound I-4, 8-(Cyclopropylmethyl)-6,6a,7,8,9,10-Hexahydropyrazino[1,2-a]Thieno [4,3,2-De]Quinoline]	69	12800	36.3		11.2		320	590					25	16.4				
c1cc2c3c(csc3c1)CC1CN(CCCOc3ccc4c(c3)OCO4)CCN21 (centres unmarked) [Compound I-16, 8-(3-(Benzo[d][1,3]Dioxol-5-Yloxy) Propyl)-6,6a, 7,8,9,10-Hexahydropyrazino[1,2-a]Thieno [4,3,2-De]Quinoline]	88	2720	44.8	57.9	289	37.7	1550	560	> 10000	340	19.5							
O=C1c2ccccc2CCCN1CCCCN1CCN2c3cccc4scc(c34)CC2C1 (centres unmarked) [Compound I-25, 2-(4-(6a,7,9,10-Tetrahydropyrazino[1,2-a]Thieno [4,3,2-De]Quinolin-8 (6H)-Yl)Butyl)-2,3,4,5-Tetrahydro-1H-Benzo[c]Azepin-1-One]	82	1320	27.8	67.9	61.5	49.2	100	770	300	969	17.8							
O=C(N[C@H]1CC[C@H](CCN2CCN3c4cccc5scc(c45)CC3C2)CC1)N1CCCC1 (stereo partly drawn) [Compound I-28, N-(4-(2-(6a,7,9,10-Tetrahydropyrazino[1,2-a]Thieno [4,3,2-De]Quinolin-8 (6H)-Yl)Ethyl) Trans-Cyclohexyl) Pyrrolidine-1-Carboxamide]	59	142	18	30.7	38.7	34.2	80	50	520	184	12.5							
c1ccc(-c2cccc(CN3CCN4c5cccc6scc(c56)CC4C3)c2)cc1 (centres unmarked) [Compound I-7, 8-([1, l′-Biphenyl]-3-Ylmethyl)-6,6a, 7,8,9, 10-Hexahydropyrazino[1,2-a]Thieno [4,3,2-De]Quinoline]								39300		140	36.9							
O=C1CCc2ccc(OCCCN3CCN4c5cccc6scc(c56)CC4C3)cc2N1 (centres unmarked) [Compound I-18, 7-(3-(6a,7,9,10-Tetrahydropyrazino[1,2-a]Thieno [4,3,2-De]Quinolin-8 (6H)-Yl) Propoxy)-3,4-Dihydroquinolin-2 (1H)-One]	82	696	33.9	91.3	279	71.9	270	10	160									
CN(C)C(=O)N[C@H]1CC[C@H](CCN2CCN3c4cccc5scc(c45)C[C@@H]3C2)CC1 [(+)-I-27]		206	9.16		16		> 10000	170	450						(60%)	(69.54%)	(45.78%)	
c1cc2c3c(csc3c1)CC1CN(CCCCOc3ccc4scnc4c3)CCN21 (centres unmarked) [Compound I-21, 8-(4-(Benzo[d]Thiazol-5-Yloxy)Butyl)-6,6a,7,8,9,10-Hexahydropyrazino[1,2-a]Thieno [4,3,2-De]Quinoline]	68	8180	146	54	233	32.6	7180	3220	> 10000	4380	16.6							
O=C1NCCN1c1cccc(CN2CCN3c4cccc5scc(c45)CC3C2)c1 (centres unmarked) [Compound I-9, 1-(3-((6a,7,9,10-Tetrahydropyrazino[1,2-a]Thieno [4,3,2-De]Quinolin-8 (6H)-Yl)Methyl)Phenyl) Imidazolidin-2-One]	55	14400	281		28.6		800	5460	690	747	25		23.1	24.2				
O=C1[C@H]2CCCC[C@H]2C(=O)N1CCCCN1CCN2c3cccc4scc(c34)CC2C1 (some centres unmarked) [Compound I-26]	88	489	573	47.9	44.8	19.8		400		339	26							
O=C(NCCN1CCN2c3cccc4scc(c34)CC2C1)c1ccc(F)cc1 (centres unmarked) [Compound I-12, 4-Fluoro-N-(2-(6a,7,9,10-Tetrahydropyrazino[1,2-a]Thieno [4,3,2-De]Quinolin-8 (6H)-Yl)Ethyl)Benzamide]	93	1320					1210	590	1520			5.7						5240
O=C1CCc2ccc(OCCCCN3CCN4c5cccc6scc(c56)CC4C3)cc2N1 (centres unmarked) [Compound I-20, 7-(4-(6a,7,9,10-Tetrahydropyrazino[1,2-a]Thieno [4,3,2-De]Quinolin-8 (6H)-Yl) Butoxy)-3,4-Dihydroquinolin-2 (1H)-One]	72	1540	107	64	464	35.6	30	160	640	5590	17.8							
O=C(CCCN1CCN2c3cccc4scc(c34)CC2C1)c1ccc(F)cc1 (centres unmarked) [Compound I-11, 1-(4-Fluorophenyl)-4-(6a,7,9,10-Tetrahydropyrazino[1,2-a]Thieno [4,3,2-De]Quinolin-8 (6H)-Yl) Butan-1-One]	28	3870					470	4540	320									
